Laboratory results: paper PMC8970883, “Simultaneous Determination of Seven Phenolic Acids, Two Flavonoids, and Tussilagone in Rat Plasma after Administration of Farfarae Flos Extract by LC–MS/MS” (Evidence-based Complementary and Alternative Medicine : eCAM, 2022)
Like-named read-outs stand apart in the source and are kept apart here.

Columns and labels:
[1] = Pharmacokinetic study in rats after intragastric administration of Farfarae Flos extract (plasma, LC-MS/MS); assay type: in vivo; details: for Cmax / Tmax / half-life / MRT last / MRT inf: male; for Cmax: rat, plasma, po; for MRT last: read-out: MRT(0–24h); for MRT inf: read-out: MRT(0–∞)
Description: A high-performance liquid chromatography instrument was used to separate three types of compounds (Agilent 1200 series, USA). The HPLC instrument is composed of four parts; a G1322A degasser, G1312A Bin Pump, G1367B auto-sampler, and G1316A thermostatic column compartment. Three types of compounds and three internal standards (ISs) were separated on an Eclipse Plus C18 (4.6 × 100 mm, 1.8 μm). The mobile phase was composed of formic acid aqueous solution (A) and formic acid methanol solution (B). The concentration of formic acid in both A and B solution was 0.1% (v/v). The gradient elution was as follows. The proportion of 10% B changes to 40% from 0 min to 3mins. 40% B changes to 90% from 16 to 18 min. B is maintained at 100% from 19 to 28 min. The flow rate, sample injected volume, and column temperature was 0.35 mL·min^−1, 10 μL, and 35°C, respectively.
Quantitative analysis of all samples was performed on Sciex API 3200 with an electrospray ionization (ESI) source. Analyst 1.6.2 workstation for instrument operation, data management, and data analysis were employed to analyze and process data (AB, Sciex). Ten analyzed compounds and three ISs were optimized during multiple reactions monitoring (MRM). […] MRM parameters of CCLA were set at 353.1-191.0. […] MRM parameters of IAB were set as 515.3-353.2 and MRM parameters of IAA were set at 515.2-353.0. MRM parameters of IAC and tussilagone were set as 515.3-352.9, 391.4-217.4, respectively.
Twenty male rats (4 months old, weight 240 ± 20 g) were obtained commercially from Vital River Laboratory Animal Company (Beijing, China). Before the pharmacokinetic experiments, they were free to eat food and drink water for one week for adapting to the environment when the dark light cycle was 12 hours, while the temperature was maintained at 25 ± 5°C. The animal experiments were guided and strictly approved by Tianjin Hospital animal ethics committee. They were fasted for 12 hours and could only drink freely water before intragastric administration of Farfarae Flos extract. Ten rats in each group were employed for eliminating data variation caused by different animal individuals. All rats in groups 1 and group 2 were orally administrated one time at two dosages of Farfarae Flos extract (carboxymethyl cellulose sodium salt (0.5%) was used to suspend the extract to prepare the administration solution 3.90 g·kg^−1 and 7.80 g·kg^−1), respectively. Rats were anesthetized with ether. The heparinized 1.5 mL polythene tube was used to collect bank plasma samples before administering dose of the extract. About 250 μL plasma samples were collected at each collecting points of 5 min, 10 min, 0.25 h, 0.50 h, 0.75 h, 1 h, 2 h, 4 h, 8 h, 12 h, 24 h, and 36 h via fossa orbitalis after dosing. All plasma samples from collecting points need to be centrifuged at 4,000 rpm for ten minutes. The supernatant fluid of centrifuged plasma samples was obtained and immediately stored at −20°C in a refrigerator until they were analyzed.
The maximum concentration (Cmax) and the time to reach the maximum concentration (Tmax) of ten target compounds were directly calculated by the real concentration-time data in the plasma. The data were expressed as mean ± SD.
Ten microliters of ISs solution (contained puerarin, ferulic acid, and artemisinin) and the plasma sample (100 μL) were added into a clean tube, and then acetonitrile (400 μL) was added to precipitate protein. After centrifugation at 14000 rpm for 10 minutes, a mild nitrogen flow was used to evaporate the liquid of the supernatant to dryness. Then, the residue was dissolved in methanol (100 μL). The solution was vortexed for 3 min, mixed for 3 minutes with ultrasound, and centrifuged for 10 min. Finally, the solution (10 μL) was used to detect concentration of ten target compounds in rat plasma.

[2] = Stability of QC samples in rat plasma (24 h, freeze-thaw, 4 weeks); assay type: in vitro ADME; details: six replicates; for 24 h stability Remain (%): 24 hours at 20°C; for Freeze-thaw stability, percent remaining: freeze-thaw cycles −20°C to 20°C; for Long stability Remain (%): stored at −80°C for 4 weeks
Description: Stock solution of 10 analytical compounds (1.00 mg·mL^−1) and three internal standards (ISs) was dissolved in methanol and placed in the refrigerator before testing. Methanol was used to prepare ferulic acid (IS1), puerarin (IS2), and artemisinin (IS3) solutions to reach a concentration of 1 μg mL^−1, respectively. A specific volume of each analyte stock solution is mixed together to prepare the standard working solution containing 10 analytes with a concentration of 10 times at LLOQ and three levels (high, medium, and low). Quality control (QC) samples for methodological validation were prepared to obtain the final concentration by adding standard working solution (10 μL) into blank plasma samples (100 μL).
Four concentration levels of ICB and ICA were 4, 12, 400, and 12000 ng mL^−1, respectively. Four concentration levels of caffeic acid were 10, 30, 1000, and 30000 ng·mL^−1, respectively.
In the stability test, 24-hour stability (The samples were placed for 24 hours at 20°C and then measured), freeze-thaw cycles (The sample was injected after the temperature changing from −20°C to 20°C), and 4 weeks stability (The sample was determined after stored at −80°C for 4 weeks) of representative QC samples were all tested. All of them were assayed with six replicates.

[3] = 3.9 g/kg, oral Farfarae Flos extract 3.9 g·kg^−1, mean ± SD
[4] = 7.8 g/kg, oral Farfarae Flos extract 7.8 g·kg^−1, mean ± SD
[5] = rat plasma, oral Farfarae Flos extract 3.9 g·kg^−1, mean ± SD
[6] = rat plasma, oral Farfarae Flos extract 7.8 g·kg^−1, mean ± SD
[7] = high concentration level (3000-30000 ng·mL^−1)
[8] = low concentration level (3-30 ng·mL^−1)
[9] = medium concentration level (100-1000 ng·mL^−1)

Compound | Cmax [1, 3] [ng/mL] | Cmax [1, 4] [ng/mL] | Tmax [1, 5] [h] | half-life [1, 5] [h] | MRT last [1, 5] [h] | MRT inf [1, 5] [h] | Tmax [1, 6] [h] | half-life [1, 6] [h] | MRT last [1, 6] [h] | MRT inf [1, 6] [h] | AUC(0–24h) [1, 5] [ng/mL ∗ h] | AUC(0–∞) [1, 5] [ng/mL ∗ h] | AUC(0–24h) [1, 6] [ng/mL ∗ h] | AUC(0–∞) [1, 6] [ng/mL ∗ h] | 24 h stability Remain (%) [2, 7] [%] | Freeze-thaw stability, percent remaining [2, 7] [%] | Long stability Remain (%) [2, 7] [%] | Freeze-thaw stability, percent remaining [2, 8] [%] | Long stability Remain (%) [2, 8] [%] | Freeze-thaw stability, percent remaining [2, 9] [%] | further results
O=C(/C=C/c1ccc(O)c(O)c1)O[C@H]1[C@H](O)C[C@](O)(C(=O)O)C[C@H]1O [CCLA, cryptochlorogenic acid] | 177 ± 131 | > 1000 | 0.64 ± 0.2 | 1.03 ± 0.53 | 4.17 ± 1.73 | 5.16 ± 2.01 | 0.39 ± 0.2 | 1.06 ± 0.58 | 5.02 ± 2.07 | 6.23 ± 2.1 | 422.3 ± 210.5 | 585.7 ± 414.0 | 1938 ± 1401 | 2019 ± 1397 | 112 | 93.2 | 95.9 | 96.8 | 97.5 | 82.9 | 24 h stability Remain (%) [2, 8]: 98.4%; 24 h stability Remain (%) [2, 9]: 112%; Long stability Remain (%) [2, 9]: 98.6%
C[C@@H]1O[C@@H](OC[C@H]2O[C@@H](Oc3c(-c4ccc(O)c(O)c4)oc4cc(O)cc(O)c4c3=O)[C@H](O)[C@@H](O)[C@@H]2O)[C@H](O)[C@H](O)[C@H]1O [Rutin, rutin] | 17.9 ± 17.6 | 76.7 ± 55.5 | – | 0.61 ± 0.46 | 1.95 ± 1.06 | 3.06 ± 1.3 | 0.32 ± 0.12 | – | 2.79 ± 0.24 | 6.02 ± 4.7 | 39.49 ± 59.42 | 42.77 ± 60.06 | 104.04 ± 53.04 | – | – | 116 | 89.6 | – | 97.0 | – | T max [1, 5]: 0.39 ± 0.16 h; t 1/2 [1, 6]: 0.82 ± 0.51 h
O=c1c(O[C@@H]2O[C@H](CO)[C@@H](O)[C@H](O)[C@H]2O)c(-c2ccc(O)c(O)c2)oc2cc(O)cc(O)c12 [Isoquercitrin, isoquercitrin] | 5.81 ± 5.72 | 10.2 ± 6.83 | 0.44 ± 0.26 | 0.88 ± 1.01 | 3.16 ± 3.46 | 7.56 ± 6.22 | 0.27 ± 0.1 | 1.19 ± 1.65 | 2.81 ± 1.79 | 9.94 ± 10.4 | 7.284 ± 5.643 | – | 16.15 ± 12.24 | 25.18 ± 13.92 | 113 | 110 | 92.3 | 104 | 92.0 | 111 | 24 h stability Remain (%) [2, 8]: 84.4%; 24 h stability Remain (%) [2, 9]: 113%; Long stability Remain (%) [2, 9]: 105%
C=C1[C@H](OC(=O)/C=C(\C)CC)C[C@@H](C(C)C)[C@@H]2[C@@H]([C@@H](C)OC(C)=O)C(=O)C[C@@H]12 [Tussilagone, tussilagone] | 0.83 ± 0.5 | 18.1 ± 13 | 0.44 ± 0.38 | 0.28 ± 0.2 | 0.87 ± 0.134 | 3.12 ± 2.62 | 0.4 ± 0.33 | 0.82 ± 0.72 | 2.42 ± 2.1 | 6.98 ± 9.13 | 1.06 ± 0.564 | 2.19 ± 1.98 | 35.48 ± 42.302 | 47.12 ± 49.445 | 95.0 | 91.8 | 109 | 83.9 | 101 | 115 | Terminal elimination half-life ([1]; rat plasma, compared among the three types of compounds, Farfarae Flos extract 3.90 and 7.80 g·kg^−1): shortest; 24 h stability Remain (%) [2, 8]: 100%; 24 h stability Remain (%) [2, 9]: 92.1%; Long stability Remain (%) [2, 9]: 107%
O=C(C=Cc1ccc(O)c(O)c1)OC1CC(O)(C(=O)O)CC(O)C1OC(=O)C=Cc1ccc(O)c(O)c1 (stereo not drawn) [IAC, isochlorogenic acid C] | 47.3 ± 29.6 | 265 ± 95.5 | 0.56 ± 0.25 | 4.25 ± 6.16 | 5.79 ± 3.25 | 18.7 ± 18.6 | 0.35 ± 0.21 | 1.37 ± 0.83 | 8.8 ± 2.73 | 13.8 ± 4.86 | 187 ± 85.5 | 319.1 ± 217.3 | 823.4 ± 182.9 | 941.9 ± 204.7 | 97.6 | 93.7 | 106 | 106 | 102 | 98.6 | 24 h stability Remain (%) [2, 8]: 91.7%; 24 h stability Remain (%) [2, 9]: 105%; Long stability Remain (%) [2, 9]: 108%
O=C(/C=C/c1ccc(O)c(O)c1)O[C@@H]1C[C@@](O)(C(=O)O)C[C@@H](O)[C@@H]1O [NCLA, neochlorogenic acid] | 74 ± 52 | 486 ± 273 | 0.69 ± 0.19 | 1.61 ± 1.1 | 4.35 ± 2.74 | 7.9 ± 7.34 | 0.36 ± 0.13 | 1.49 ± 0.54 | 6.33 ± 2.33 | 8.61 ± 2.66 | 210.2 ± 126.4 | 239.3 ± 125.3 | 965.7 ± 295.9 | 1028 ± 3007 | – | 87.0 | 114 | 111 | – | 82.9 | –
